Measurements taken from PubChem BioAssay AID1314 (NMMLSC, 2008).
The source made the active and inactive calls.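 How the source made its calls: active means compounds raising the area under the GFP-over-time curve by more than 15% versus untreated cells, meaning slower Sic1 breakdown; inactive means the rest.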 Residues, ends and D or L forms follow the SMILES beside them. *: point of attachment. Cbz = O=C(OCc1ccccc1)*

Tested on: S. cerevisiae Cln2-overexpressing, Sic1-GFP degradation, flow cytometry
Assay: yeast Sic1-GFP turnover with elevated Cln2 – secondary assay, flow cytometry, S. cerevisiae, mechanism study for 26S proteasome disassembly project (AID 1314)

Compound	outcome
CC(=O)N1C(=O)C(=C2C=C(C)OC(C)=C2)c2ccccc21	active; degradation inhibitor
CC(C)C[C@@H](C=O)NC(=O)[C@H](CC(C)C)NC(=O)[C@H](CC(C)C)NC(=O)OCc1ccccc1 (Cbz-Leu-Leu-Leu-aldehyde)	active; degradation inhibitor
